Where no end group is shown, it is not given here.
Experiments:
[1] = system: T cell clones reactive to MPO peptide #25; assay: Binding of HLA-A2 multimers with alanine-substituted MPO peptide #25 to T cell clones; type: cell-based, human; details: PE-conjugated multimers; 3 T cell clones from CTL line #25; flow cytometry
Protocol: FIG. 6A-C. […] (A) Assays were performed as described in FIG. 2, except that only degranulation responses were measured. […] (B) Three of the clones shown in (A) were examined for binding of PE-conjugated HLA-A2 multimers containing the #25 peptide with and without an alanine substitution in each position, using flow cytometry.
To obtain more information on the range of T cell reactivities to one of these novel T cell epitopes, T-cell clones were generated from CTL line #25, specific for MPO epitope […] (SEQ ID NO:45).

[2] = system: primary T cells transduced with a MART-1 specific TCR; assay: Binding of alanine-replaced peptide #25 multimers to MART-1 TCR transduced T cells; type: cell-based, human; details: specificity control for alanine-replaced multimers

P506A: MPO peptide #25 (LIQPFMFRL) with an alanine-replacement in position 4, in HLA-A2 multimer (LIQAFMFRL; also: in HLA-A2 multimer) [Peptide P506A]
HLA-A2 multimer binding of alanine-substituted #25 peptide relative to WT peptide [1]: higher binding
Multimer binding to primary T cells transduced with a MART-1 specific TCR [2]: bound non-specifically
